Data taken from ChEMBL document CHEMBL4422658, “Calixarene-based phosphinic acids as inhibitors of protein tyrosine phosphatases” (Bioorg Med Chem Lett, 2019).

Columns and labels:
[1] = molecular target: T1, Tyrosine-protein phosphatase non-receptor type 4 (Homo sapiens, UniProt P29074); assay: Inhibition of recombinant human N-terminal GST-tagged MEG1 catalytic domain (637 to 926 residues) expressed in Escherichia coli using […] as substrate preincubated with substrate for 5 mins followed by enzyme addition
T1 sequence (P29074 whole entry): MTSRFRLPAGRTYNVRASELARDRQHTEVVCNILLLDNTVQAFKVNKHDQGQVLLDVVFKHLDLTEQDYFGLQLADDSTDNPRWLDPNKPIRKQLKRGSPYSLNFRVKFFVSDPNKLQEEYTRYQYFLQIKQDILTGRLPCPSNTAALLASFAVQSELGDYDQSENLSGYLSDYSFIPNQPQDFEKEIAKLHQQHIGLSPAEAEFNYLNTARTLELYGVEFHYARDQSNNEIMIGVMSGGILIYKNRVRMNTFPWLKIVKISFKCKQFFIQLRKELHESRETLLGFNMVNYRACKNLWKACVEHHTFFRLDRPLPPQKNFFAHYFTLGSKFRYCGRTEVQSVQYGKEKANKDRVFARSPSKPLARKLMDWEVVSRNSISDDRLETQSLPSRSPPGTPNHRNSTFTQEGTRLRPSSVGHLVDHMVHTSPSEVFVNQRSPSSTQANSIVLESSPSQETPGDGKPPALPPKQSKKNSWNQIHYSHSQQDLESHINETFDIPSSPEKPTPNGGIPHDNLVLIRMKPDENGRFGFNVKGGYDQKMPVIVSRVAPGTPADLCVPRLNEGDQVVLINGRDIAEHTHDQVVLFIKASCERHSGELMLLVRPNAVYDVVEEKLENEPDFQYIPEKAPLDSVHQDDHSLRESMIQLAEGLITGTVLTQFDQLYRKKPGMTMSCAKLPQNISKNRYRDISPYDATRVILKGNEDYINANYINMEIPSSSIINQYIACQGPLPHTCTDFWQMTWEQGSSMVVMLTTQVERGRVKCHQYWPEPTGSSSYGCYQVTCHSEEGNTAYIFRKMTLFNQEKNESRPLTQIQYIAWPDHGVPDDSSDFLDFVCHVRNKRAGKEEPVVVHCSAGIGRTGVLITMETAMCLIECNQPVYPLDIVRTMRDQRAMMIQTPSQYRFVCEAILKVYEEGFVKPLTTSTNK

[2] = molecular target: T2, Tyrosine-protein phosphatase non-receptor type 2 (Homo sapiens, UniProt P17706); assay: Inhibition of recombinant human N-terminal GST-tagged TCPTP catalytic domain (2 to 315 residues) expressed in Escherichia coli using […] as substrate preincubated with substrate for 5 mins followed by enzyme addition
T2 sequence (P17706 whole entry): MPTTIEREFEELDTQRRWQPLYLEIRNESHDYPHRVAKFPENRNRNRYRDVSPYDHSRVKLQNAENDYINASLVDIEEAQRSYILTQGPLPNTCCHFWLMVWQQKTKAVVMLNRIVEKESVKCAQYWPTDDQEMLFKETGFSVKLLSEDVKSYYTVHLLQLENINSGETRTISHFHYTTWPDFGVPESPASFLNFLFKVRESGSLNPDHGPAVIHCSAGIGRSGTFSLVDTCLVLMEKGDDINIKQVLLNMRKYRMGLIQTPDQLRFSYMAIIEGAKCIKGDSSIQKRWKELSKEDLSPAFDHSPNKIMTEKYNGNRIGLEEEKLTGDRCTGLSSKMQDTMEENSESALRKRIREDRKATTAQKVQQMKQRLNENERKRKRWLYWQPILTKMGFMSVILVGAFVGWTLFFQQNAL

[3] = molecular target: T3, Tyrosine-protein phosphatase non-receptor type 9 (Homo sapiens, UniProt P43378); assay: Inhibition of recombinant human N-terminal GST-tagged MEG2 catalytic domain (285 to 593 residues) expressed in Escherichia coli using […] as substrate preincubated with substrate for 5 mins followed by enzyme addition
T3 sequence (P43378 whole entry): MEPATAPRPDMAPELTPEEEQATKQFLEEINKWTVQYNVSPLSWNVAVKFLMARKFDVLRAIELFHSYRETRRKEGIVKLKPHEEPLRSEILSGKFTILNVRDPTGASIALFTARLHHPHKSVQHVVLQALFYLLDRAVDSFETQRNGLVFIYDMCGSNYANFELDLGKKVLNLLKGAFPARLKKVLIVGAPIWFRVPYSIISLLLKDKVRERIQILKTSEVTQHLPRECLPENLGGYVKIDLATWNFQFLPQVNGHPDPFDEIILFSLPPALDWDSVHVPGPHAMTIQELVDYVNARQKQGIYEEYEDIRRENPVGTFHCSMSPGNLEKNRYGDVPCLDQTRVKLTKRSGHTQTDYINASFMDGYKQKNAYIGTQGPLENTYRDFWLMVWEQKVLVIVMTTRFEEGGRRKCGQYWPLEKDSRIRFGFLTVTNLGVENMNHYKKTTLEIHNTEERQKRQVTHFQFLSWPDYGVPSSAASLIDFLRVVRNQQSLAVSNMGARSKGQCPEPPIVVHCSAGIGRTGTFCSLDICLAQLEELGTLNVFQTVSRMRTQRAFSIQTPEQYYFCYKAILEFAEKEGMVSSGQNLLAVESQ

[4] = molecular target: T4, Tyrosine-protein phosphatase non-receptor type 1 (Homo sapiens, UniProt P18031); assay: Inhibition of recombinant human PTP1B expressed in Escherichia coli using […] as substrate preincubated with substrate for 5 mins followed by enzyme addition
T4 sequence (P18031 whole entry): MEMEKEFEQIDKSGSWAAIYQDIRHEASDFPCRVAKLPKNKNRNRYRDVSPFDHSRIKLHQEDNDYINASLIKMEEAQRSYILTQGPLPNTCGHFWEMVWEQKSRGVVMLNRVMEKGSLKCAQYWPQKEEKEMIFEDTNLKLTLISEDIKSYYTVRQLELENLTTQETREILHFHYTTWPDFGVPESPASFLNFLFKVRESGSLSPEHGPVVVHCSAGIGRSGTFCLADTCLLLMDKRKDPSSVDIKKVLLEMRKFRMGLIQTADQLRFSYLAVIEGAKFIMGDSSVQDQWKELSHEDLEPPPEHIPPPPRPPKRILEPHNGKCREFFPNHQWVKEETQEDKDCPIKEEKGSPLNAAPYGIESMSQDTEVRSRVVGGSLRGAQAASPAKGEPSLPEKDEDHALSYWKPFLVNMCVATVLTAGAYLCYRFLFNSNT

[5] = molecular target: T5, Tyrosine-protein phosphatase non-receptor type 11 (Homo sapiens, UniProt Q06124); assay: Inhibition of recombinant human SHP2 expressed in Escherichia coli using […] as substrate preincubated with substrate for 5 mins followed by enzyme addition
T5 sequence (Q06124 whole entry): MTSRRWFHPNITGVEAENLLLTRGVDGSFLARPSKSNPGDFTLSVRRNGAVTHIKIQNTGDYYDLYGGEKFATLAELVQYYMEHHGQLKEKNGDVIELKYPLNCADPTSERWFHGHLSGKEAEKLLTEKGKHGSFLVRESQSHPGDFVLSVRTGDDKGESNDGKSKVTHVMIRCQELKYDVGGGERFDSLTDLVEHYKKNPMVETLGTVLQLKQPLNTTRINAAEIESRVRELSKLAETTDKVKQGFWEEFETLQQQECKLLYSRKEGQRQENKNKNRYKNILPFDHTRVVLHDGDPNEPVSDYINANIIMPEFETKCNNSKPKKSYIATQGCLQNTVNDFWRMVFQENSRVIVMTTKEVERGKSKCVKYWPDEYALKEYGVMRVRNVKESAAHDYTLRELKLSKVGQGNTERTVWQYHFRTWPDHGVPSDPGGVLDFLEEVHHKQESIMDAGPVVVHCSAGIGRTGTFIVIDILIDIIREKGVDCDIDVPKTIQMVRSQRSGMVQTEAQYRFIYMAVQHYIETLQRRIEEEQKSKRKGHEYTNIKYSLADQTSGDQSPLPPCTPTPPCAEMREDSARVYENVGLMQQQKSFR

[6] = molecular target: T4, Tyrosine-protein phosphatase non-receptor type 1; assay: Competitive inhibition of recombinant human PTP1B expressed in Escherichia coli using varying levels of […] as substrate by Lineweaver-burk plot analysis
[7] = organism: Homo sapiens; assay: Selectivity ratio of IC50 for recombinant human N-terminal GST-tagged TCPTP catalytic domain (2 to 315 residues) expressed in Escherichia coli to IC50 for recombinant human PTP1B expressed in Escherichia coli
[8] = organism: Homo sapiens; assay: Selectivity ratio of IC50 for recombinant human N-terminal GST-tagged MEG1 catalytic domain (637 to 926 residues) expressed in Escherichia coli to IC50 for recombinant human PTP1B expressed in Escherichia coli
[9] = organism: Homo sapiens; assay: Selectivity ratio of IC50 for recombinant human SHP2 expressed in Escherichia coli to IC50 for recombinant human PTP1B expressed in Escherichia coli
[10] = organism: Homo sapiens; assay: Selectivity ratio of IC50 for recombinant human N-terminal GST-tagged MEG2 catalytic domain (285 to 593 residues) expressed in Escherichia coli to IC50 for recombinant human PTP1B expressed in Escherichia coli

| IC50 [1] [nM] | IC50 [2] [nM] | IC50 [3] [nM] | IC50 [4] [nM] | IC50 [5] [nM] | Ki [6] [nM] | Ratio IC50 [7] | Ratio IC50 [8] | Ratio IC50 [9] | Ratio IC50 [10] | Structure (SMILES) |
| --- | --- | --- | --- | --- | --- | --- | --- | --- | --- | --- |
| 180 | 280 | 410 | 79 | 500 | 32 | – | – | – | – | O=P(O)(Cc1cc2c(O)c(c1)S(=O)(=O)c1cc(CP(=O)(O)c3ccccc3)cc(c1O)S(=O)(=O)c1cc(CP(=O)(O)c3ccccc3)cc(c1O)S(=O)(=O)c1cc(CP(=O)(O)c3ccccc3)cc(c1O)S2(=O)=O)c1ccccc1 |
| 5400 | 6800 | 5900 | 380 | 3700 | 140 | 15 | 10 to 18 | 10 to 18 | 10 to 18 | O=P(O)(Cc1cc2c(O)c(c1)Sc1cc(CP(=O)(O)c3ccccc3)cc(c1O)Sc1cc(CP(=O)(O)c3ccccc3)cc(c1O)Sc1cc(CP(=O)(O)c3ccccc3)cc(c1O)S2)c1ccccc1 |
| – | – | – | – | – | – | 15 | – | – | – | CCOP(=O)(O)Cc1cc2c(O)c(c1)Sc1cc(CP(=O)(O)OCC)cc(c1O)Sc1cc(CP(=O)(O)OCC)cc(c1O)Sc1cc(CP(=O)(O)OCC)cc(c1O)S2 |
| 30000 | 20000 | 2400 | 2800 | 4600 | – | – | – | – | – | O=P(O)(Cc1cc2c(O)c(c1)Cc1cc(CP(=O)(O)c3ccccc3)cc(c1O)Cc1cc(CP(=O)(O)c3ccccc3)cc(c1O)Cc1cc(CP(=O)(O)c3ccccc3)cc(c1O)C2)c1ccccc1 |
